From patent US11767330B2, “Citrate salt, pharmaceutical compositions, and methods of making and using the same” (Foghorn Therapeutics Inc., priority 2021, dated 2023)
Entries after “also recorded” stand apart in the source; their conditions may differ.

What was measured:
Assay type in all cases: physicochemical
[1] = Stability at 40° C./75% RH for 1 week; settings: for XRPD after storage / chemical purity by HPLC after storage / chiral purity by HPLC after storage: 40° C. and 75% RH
Description: The humid environment was generated with saturated sodium chloride in water in a sealed container. After one week, the sample appeared pale-yellow upon inspection.
(§1) The one-week stability at 75% RH was also tested. In this experiment, 12 mg of the dried crystalline freebase from MeOH were weighted in a 4 mL vial and placed in a 20 mL vial set at 40° C. and 75% RH for 1 week. The humid environment was generated with saturated sodium chloride in water in a sealed container.
as §1, with “the” for “the dried”, “was” for “were”

[2] = Thermal treatment of solid forms followed by XRPD; settings: heated, held, cooled down to RT
Description: Thermal Treatment of Amorphous Salt. […] The thermal events were measured by TGA/DSC and XRPD was used to study the resulting materials.
To study the effect of the temperature, the compound was subjected to a thermal treatment consisting of heating up the sample from RT up to 100° C. at a 10° C./min, and holding this temperature for 5 min to subsequently cool down to RT. The sample was collected and further analyzed with XRPD.
The sample was subjected to a thermal treatment consisting of heating the sample gradually (10° C./min) up to the first two thermal events shown by TGA/DSC analysis, i.e., 130 and 225° C. In each case, the temperature was held for 5 min, followed by cooling down to RT. The sample was collected and further analyzed with XRPD. […] Overall, the crystalline freebase Pattern FF-B obtained from acetone lost some crystallinity upon drying and exposure to humidity and heat.

[3] = Physical stability by XRPD upon drying at 50° C. under vacuum and exposure to >95% RH
Description: (§2) X-Ray Powder Diffraction (XRPD). XRPD was performed using a Rigaku MiniFlex 600 in reflection mode (i.e., Bragg-Brentano geometry). Samples were prepared on Si zero-return wafers.
XRPD analysis was done in three stages. XRPD of the wet cake was done for all samples where solids were observed.
(§3) The solids were then exposed to >95% RH overnight. This humid environment was produced by placing a beaker of saturated potassium sulfate in water in a sealed container at RT. The materials exposed to these conditions were evaluated by XRPD, and their patterns were compared to those produced before.
as §3, with “The pattern FF-B was dried at 50° C. under vacuum for 3 h after filtration for further XRPD analysis. The solids” for “The solids”, “to those of the crystalline freebase along each step.” for “to those produced before.”

[4] = Dynamic vapor sorption (DVS) hygroscopicity
Description: Dynamic Vapor Sorption (DVS). DVS was performed using a Q5000SA. The sample (5-15 mg) was loaded into a metallic quartz sample pan, suspended from a microbalance, and exposed to a humidified stream of nitrogen gas. Weight changes were relative to a matching empty reference pan opposite the sample, suspended from the microbalance. One of two methods was used:
Method 1: The sample was held for a minimum of 10 min at each level and only progressed to the next humidity level if there was <0.002% change in weight between measurements (interval: 5 s) or 60 min had elapsed.

[5] = Solid form characterisation (TGA/DSC, KF, XRPD, HPLC chemical and chiral purity); settings: initial, before stability test
Description: Differential Scanning Calorimetry (DSC). DSC was performed using a Mettler Toledo DSC^3+. The sample (1-5 mg) was weighed directly in a 40 μL hermetic aluminum pan with a pinhole and analyzed according to the parameters in Tables 41 and 42.
High Performance Liquid Chromatography (HPLC). HPLC was conducted using an Agilent 1220 Infinity LC or Agilent 1220 Infinity 2 LC equipped with diode array detector (DAD). Flow rate range of the instrument is 0.2-5.0 mL/min, operating pressure range is 0-600 bar, temperature range is 5° C. above ambient to 60° C., and wavelength range is 190-600 nm.
Karl Fischer (KF) Titration. KF titration for water determination was performed using a Mettler Toledo C20S Coulometric KF Titrator equipped with a current generator cell with a diaphragm, and a double-platinum-pin electrode. The range of detection of the instrument is 1 ppm to 5% water. Aquastar™
CombiCoulomat fritless reagent was used in both the anode and cathode compartments. Samples of approximately 0.03-0.10 g were dissolved in the anode compartment and titrated until the solution potential dropped below 100 mV. Hydranal 1 wt. % water standard was used for validation prior to sample analysis.
Simultaneous Thermogravimetric Analysis and Differential Scanning Calorimetry (TGA and DSC). TGA and DSC were performed on the same sample simultaneously using a Mettler Toledo TGA/DSC^3+. Protective and purge gas was nitrogen at a flowrate of 20-30 mL/min and 50-100 mL/min, respectively. The desired amount of sample (5-10 mg) was weighed directly in a hermetic aluminum pan with pinhole and analyzed according to the parameters below:
as §2
XRPD was performed using a Bruker D8 Advance equipped with LYNXEYE detector in reflection mode (i.e., Bragg-Brentano geometry). Samples were prepared on Si zero-return wafers.

[6] = Amorphous to crystalline studies (long-term slurries, vapor diffusion, slow evaporation); settings: Am = amorphous
Description: Long-Term Slurries. Long-term slurries were carried out for the purpose of producing crystalline forms. […] In this procedure, 30 mg of solid was added to a 2 mL vial containing a 6.3 mm stir bar. Then, 3 vol. of solvent was added, followed by the addition of more solvent in 5 vol. increments until it formed a flowable slurry. After 10 days, the solids were filtered and transferred to an XRPD plate for further analysis on the wet cake. Overall, crystalline patterns were not observed after one week. However, a crystalline solid was observed after stirring in MeOH for about six weeks.
Vapor-Diffusion Crystallization onto Solution and Solids. […] A suitable solvent was added to completely dissolve the solid, while producing a solution of slightly undersaturated concentration. The open vial was placed inside a 20 mL scintillation vial and 3 mL of antisolvent was added to the 20 mL vial to diffuse into the solution. The 20 mL vial was capped, sealed with parafilm, and kept undisturbed at RT.
Vapor diffusion onto solids was also started. The procedure is very similar, with the only difference that the active pharmaceutical ingredient (API) is not dissolved in a solvent; the vapor diffused directly onto the solid. The samples were monitored for visual changes in the solid (color, texture, size, etc.) over 2 months.
Slow Evaporation. […] The samples that were thin slurries were filtered with a […] syringe filter to obtain a clear solution. In some cases, cosolvent was added to obtain a solution. A needle was inserted in the cap septa to allow the solvents to evaporate slowly. The solutions were monitored frequently for precipitation.

## COc1cc(-c2cn(C)c(=O)c3cnc(N4CCC4)cc23)cc(OC)c1CN1CCC(CN2CCC3(CC2)CN(c2ccc4c(c2)C(=O)N([C@@H]2CCC(=O)NC2=O)C4)C3)CC1 [pattern FF-B]
[1]
  XRPD after storage: splitting of the signal at 5.3 and 13.7°
  chemical purity by HPLC after storage: 98.56%
  chiral purity by HPLC after storage: 96.13%
[1]; 40° C./75% RH
  Purity by HPLC (%) After 1 week 75% RH [chiral]: [96.13] %
  Purity by HPLC (%) After 1 week 75% RH chemical: 98.56%
[2]
  XRPD after thermal treatment: decreased crystallinity after exposure to 130 °C
[3]
  physical stability (XRPD) upon drying at 50° C. under vacuum and exposure to >95% RH: crystallinity of the compound decreased after drying the sample under vacuum; also recorded: Some of the crystallinity was regained after exposing the sample to high RH overnight
[3]; after drying, Am = amorphous
  XRPD pattern Dry: FF-B
[3]; after exposure to humidity, Am = amorphous
  XRPD pattern Humid: FF-B
[3]; solid form of compound R-D1, Am = amorphous
  XRPD pattern Wet: FF-B
[4]
  HPLC chemical purity after DVS analysis: 99.06%
  XRPD after DVS analysis: slight loss in crystallinity
  hygroscopicity according to the European Pharmacopeia standards (DVS): hygroscopic
[4]; mass change up to 95% RH
  Hygroscopicity by DVS (up to 95% RH): >8.80 wt. %
[5]
  Purity by HPLC (%) [chiral]: [96.56] %
  Purity by HPLC (%) chemical: 98.85%

## COc1cc(-c2cn(C)c(=O)c3cnc(N4CCC4)cc23)cc(OC)c1CN1CCC(CN2CCC3(CC2)CN(c2ccc4c(c2)C(=O)N([C@@H]2CCC(=O)NC2=O)C4)C3)CC1.O=C(O)CC(O)(CC(=O)O)C(=O)O [citrate salt of compound R-D1]
[1]
  XRPD after storage: did not show conversion to a crystalline form
[2]
  XRPD after thermal treatment: None of these experiments resulted in crystalline solids
[6]; antisolvent vapor diffusion onto solution, RT, solvent Benzyl alcohol, antisolvent Acetone
  Pattern: Am
[6]; antisolvent vapor diffusion onto solution, RT, solvent Benzyl alcohol, antisolvent EtOH
  Pattern: Am
[6]; antisolvent vapor diffusion onto solution, RT, solvent Benzyl alcohol, antisolvent MeOAc
  Pattern: Am
[6]; antisolvent vapor diffusion onto solution, RT, solvent DMAC, antisolvent ACN
  Pattern: Am
[6]; antisolvent vapor diffusion onto solution, RT, solvent DMAC, antisolvent Acetone
  Pattern: Am
[6]; antisolvent vapor diffusion onto solution, RT, solvent DMAC, antisolvent DCM
  Pattern: Am
[6]; antisolvent vapor diffusion onto solution, RT, solvent DMAC, antisolvent EtOAc
  Pattern: Am
[6]; antisolvent vapor diffusion onto solution, RT, solvent DMAC, antisolvent IPA
  Pattern: Am
[6]; antisolvent vapor diffusion onto solution, RT, solvent DMAC, antisolvent MEK
  Pattern: Am
[6]; antisolvent vapor diffusion onto solution, RT, solvent DMSO, antisolvent Acetone
  Pattern: Am
[6]; antisolvent vapor diffusion onto solution, RT, solvent DMSO, antisolvent DCM
  Pattern: Am
[6]; antisolvent vapor diffusion onto solution, RT, solvent DMSO, antisolvent EtOH
  Pattern: Am
[6]; antisolvent vapor diffusion onto solution, RT, solvent DMSO, antisolvent MEK
  Pattern: Am
[6]; antisolvent vapor diffusion onto solution, RT, solvent DMSO, antisolvent MeOAc
  Pattern: Am
[6]; vapor diffusion onto solids, over 2 months, antisolvent Chloroform
  Pattern: Am
[6]; vapor diffusion onto solids, over 2 months, antisolvent Cyclohexane
  Pattern: Am
[6]; vapor diffusion onto solids, over 2 months, antisolvent DCM
  Pattern: Am
[6]; vapor diffusion onto solids, over 2 months, antisolvent Diethyl ether
  Pattern: Am
[6]; vapor diffusion onto solids, over 2 months, antisolvent Hexanes
  Pattern: Am
[6]; vapor diffusion onto solids, over 2 months, antisolvent MeOH
  Pattern: Am
[6]; vapor diffusion onto solids, over 2 months, antisolvent Methyl cyclohexane
  Pattern: Am
[6]; vapor diffusion onto solids, over 2 months, antisolvent MtBE
  Pattern: Am

## COc1cc(-c2cn(C)c(=O)c3cnc(N4CCC4)cc23)cc(OC)c1CN1CCC(CN2CCC3(CC2)CN(c2ccc4c(c2)C(=O)N([C@@H]2CCC(=O)NC2=O)C4)C3)CC1 [Pattern FF-A]
[1]
  chemical purity by HPLC after storage: 98.27%
  chiral purity by HPLC after storage: 94.55%
[2]
  XRPD after thermal treatment: loss of some crystallinity
[3]
  physical stability (XRPD) upon drying at 50° C. under vacuum and exposure to >95% RH: Reduction in the crystallinity
[4]
  HPLC chemical purity after DVS analysis: 98.68%
  XRPD after DVS analysis: new signal at 26=5.8°
  hygroscopicity according to the European Pharmacopeia standards (DVS): hygroscopic
